In ChEMBL document CHEMBL1138478, “Application of a proteolysis/mass spectrometry method for investigating the effects of inhibitors on hydroxylase structure” (J Med Chem, 2009):

Experiment: Inhibition of human recombinant PHD2 (181-426) expressed in Escherichia coli BL21 (DE3) by TR-FRET assay

IC50 | SMILES
1.91 µM | O=C(O)c1ccnc(C(=O)O)c1
19.1 µM | O=C(O)/C=C/C(=O)O [FUMARIC ACID]
